According to US8008488B2 (Abbott GmbH & Co. KG, priority 2003, dated 2011):
Structures can show the parent of a compound that is named as a salt.

Legend:
[1] = target: T1, human dopamine D3 receptors (Homo sapiens, UniProt P35462); test: Dopamine D3 receptor binding, displacement of [125I]-iodosulpride; conditions: membranes from HEK-293 cells with stably expressed human D3 receptors, 0.1 nM [125I]-iodosulpride
T1 construct: expressed in transfected cells
Method: (§1) The substance to be tested was dissolved either in methanol/Chremophor® (BASF-AG) or in dimethyl sulfoxide and then diluted with water to the desired concentration.
(§2) Triplicate mixtures were carried out.
The incubation buffer contained 50 mM Tris, 120 mM NaCl, 5 mM KCl, 2 mM CaCl2, 2 mM MgCl2 and 0.1% bovine serum albumin, 10 μM quinolone, 0.1% ascorbic acid (prepared fresh each day). The buffer was adjusted to pH 7.4 with HCl.
(§3) Measurement and Evaluation:
(§4) After incubation at 25° C. for 60 minutes, the mixtures were filtered under vacuum through Whatman GF/B glass fiber filters using a cell harvester. The filters were transferred by a filter transfer system into scintillation vials. After addition of 4 ml of Ultima Gold® (Packard), the samples were shaken for one hour and then the radioactivity was calculated in a beta counter (Packard, Tricarb 2000 or 2200CA). The cp values were converted into dpm by means of a standard quench series with the aid of the instrument's own program.
(§5) Evaluation of the inhibition plots took place by iterative nonlinear regression analysis using the Statistical Analysis System (SAS) similar to the “LIGAND” program described by Munson and Rodbard.

[2] = target: T2, human dopamine D2L receptors (long isoform) (Homo sapiens, UniProt P14416); test: Dopamine D2L receptor binding, displacement of [125I]-iodospiperone; conditions: *Ki(D2L)/Ki(D3), HEK-293 membranes, 0.01 nM [125I]-iodospiperone
T2 construct: expressed in transfected cells
Method: as §1, §2
The incubation buffer contained 50 mM Tris, 120 mM NaCl, 5 mM KCl, 2 mM CaCl2, 2 mM MgCl2 and 0.1% bovine serum albumin. The buffer was adjusted to pH 7.4 with HCl.
as §3, §4, §5

T2 sequence (P14416 whole entry, canonical isoform): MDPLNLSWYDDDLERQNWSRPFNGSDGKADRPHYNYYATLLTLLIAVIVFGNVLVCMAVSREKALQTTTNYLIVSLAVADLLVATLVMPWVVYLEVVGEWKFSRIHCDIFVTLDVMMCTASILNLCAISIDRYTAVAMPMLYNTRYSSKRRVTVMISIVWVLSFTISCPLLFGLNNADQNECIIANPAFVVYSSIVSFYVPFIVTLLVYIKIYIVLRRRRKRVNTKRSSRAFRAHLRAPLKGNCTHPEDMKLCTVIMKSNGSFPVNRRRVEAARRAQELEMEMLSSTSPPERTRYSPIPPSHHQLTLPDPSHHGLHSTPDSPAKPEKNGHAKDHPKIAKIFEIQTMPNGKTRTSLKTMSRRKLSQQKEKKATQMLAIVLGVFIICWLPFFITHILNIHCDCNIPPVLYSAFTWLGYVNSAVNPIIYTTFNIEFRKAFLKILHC
T1 sequence (P35462 whole entry): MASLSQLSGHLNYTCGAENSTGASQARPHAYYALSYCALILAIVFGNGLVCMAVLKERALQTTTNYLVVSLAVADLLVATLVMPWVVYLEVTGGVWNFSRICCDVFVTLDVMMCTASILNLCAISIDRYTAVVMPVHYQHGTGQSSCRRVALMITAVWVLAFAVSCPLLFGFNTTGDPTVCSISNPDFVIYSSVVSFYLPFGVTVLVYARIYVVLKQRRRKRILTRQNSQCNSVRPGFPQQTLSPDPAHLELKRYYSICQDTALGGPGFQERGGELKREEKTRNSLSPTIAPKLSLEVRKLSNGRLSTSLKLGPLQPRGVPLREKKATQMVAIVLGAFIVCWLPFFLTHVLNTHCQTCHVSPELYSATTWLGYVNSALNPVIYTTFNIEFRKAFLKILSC

Compound | Ki [1] | Selectivity D3 vs. D2L* [2]
Cc1cn(CCCC(C)N2CCN(c3cc(C(F)(F)F)nc(C(C)(C)C)n3)CC2)c(=O)[nH]c1=O (stereo not drawn) [Example 54, 1-{4-[4-(2-tert-Butyl-6-trifluoromethylpyrimidin-4-yl)piperazin-1-yl]pentyl}-5-methyl-1H-pyrimidine-2,4-dione] | 9.25 nM | 52
CC(C)(C)c1nc(N2CCN(CCCCn3cc(C(F)(F)F)c(=O)[nH]c3=O)CC2)cc(C(F)(F)F)n1 [Example 55, 1-{4-[4-(2-tert-Butyl-6-trifluoromethylpyrimidin-4-yl)piperazin-1-yl]butyl}-5-trifluoromethyl-1H-pyrimidine-2,4-dione] | 5.44 nM | 119
CCCc1cc(N2CCN(CCCCn3cc(C(F)(F)F)c(=O)[nH]c3=O)CC2)nc(C(C)(C)C)n1 [Example 56, 1-{4-[4-(2-tert-Butyl-6-propylpyrimidin-4-yl)piperazin-1-yl]butyl}-5-trifluoromethyl-1H-pyrimidine-2,4-dione] | 1.02 nM | 134
CCCc1cc(N2CCN(CCCCn3ccc(-c4ccccc4C)nc3=O)CC2)nc(C(C)(C)C)n1 [Example 57, 4-(2-tert-Butyl-6-propylpyrimidin-4-yl)-1-[4-(2-oxo-4-(o-tolyl)-2H-pyrimidin-1-yl)butyl]-piperazin-1-ium fumarate] | 0.96 nM | 111
Cc1ccccc1-c1ccn(CCCCN2CCN(c3cc(C(F)(F)F)nc(C(C)(C)C)n3)CC2)c(=O)n1 [Example 60, 4-(2-tert-Butyl-6-trifluoromethylpyrimidin-4-yl)-1-[4-(2-oxo-4-(o-tolyl)-2H-pyrimidin-1-yl)butyl]piperazin-1-ium fumarate] | 4.33 nM | 91
CCCc1cc(N2CCN(C(C)CCCn3ccc(=O)[nH]c3=O)CC2)nc(C(C)(C)C)n1 (stereo not drawn) [Example 61, 4-(2-tert-Butyl-6-propylpyrimidin-4-yl)-1-[4-(2,4-dioxo-3,4-dihydro-2H-pyrimidin-1-yl)-1-methylbutyl]piperazin-1-ium fumarate] | 5.84 nM | 28
Cc1ccc(-c2ccn(CCCCN3CCN(c4cc(C(F)(F)F)nc(C(C)(C)C)n4)CC3)c(=O)n2)cc1 [Example 66, 4-(2-tert-Butyl-6-trifluoromethylpyrimidin-4-yl)-1-[4-(2-oxo-4-(p-tolyl)-2H-pyrimidin-1-yl)butyl]piperazin-1-ium fumarate] | 13.5 nM | 37
CC(C)(C)c1nc(N2CCN(CCCCn3ccc(-c4ccccc4F)nc3=O)CC2)cc(C(F)(F)F)n1 [Example 67, 4-(2-tert-Butyl-6-trifluoromethylpyrimidin-4-yl)-1-{4-[4-(2-fluorophenyl)-2-oxo-2H-pyrimidin-1-yl]butyl}piperazin-1-ium fumarate] | 10.1 nM | 39
CCCc1cc(N2CCN(CCCCn3ccc(-c4cccc(F)c4)nc3=O)CC2)nc(C(C)(C)C)n1 [Example 72, 4-(2-tert-Butyl-6-propylpyrimidin-4-yl)-1-{4-[4-(3-fluorophenyl)-2-oxo-2H-pyrimidin-1-yl]butyl}piperazin-1-ium fumarate] | 1.49 nM | 54
CC(C)(C)c1nc(N2CCN(CCCCn3ccc(-c4cccc(F)c4)nc3=O)CC2)cc(C(F)(F)F)n1 [Example 73, 4-(2-tert-Butyl-6-trifluoromethylpyrimidin-4-yl)-1-{4-[4-(3-fluorophenyl)-2-oxo-2H-pyrimidin-1-yl]butyl}piperazin-1-ium fumarate] | 9.3 nM | 31
O=c1nc(-c2ccccc2)ccn1CCCCN1CCN(c2cccc(Cl)c2Cl)CC1 [Example 81, 4-(2,3-Dichlorophenyl)-1-[4-(2-oxo-4-phenyl-2H-pyrimidin-1-yl)butyl]piperazin-1-ium fumarate] | 2.56 nM | 94
CCCc1cc(N2CCN(CCCCn3cc(CC)c(=O)[nH]c3=O)CC2)nc(C(C)(C)C)n1 [Example 84, 4-(2-tert-Butyl-6-propylpyrimidin-4-yl)-1-[4-(5-ethyl-2,4-dioxo-3,4-dihydro-2H-pyrimidin-1-yl)butyl]piperazin-1-ium fumarate] | 0.75 nM | 63
CCOc1ccn(CCCCN2CCN(c3cc(C(F)(F)F)nc(C(C)(C)C)n3)CC2)c(=O)n1 [Example 85, 4-(2-tert-Butyl-6-trifluoromethylpyrimidin-4-yl)-1-[4-(4-ethoxy-2-oxo-2H-pyrimidin-1-yl)butyl]piperazin-1-ium fumarate] | 7.36 nM | 35
CCCc1cc(N2CCN(CCCCn3ccc(OCC)nc3=O)CC2)nc(C(C)(C)C)n1 [Example 86, 4-(2-tert-Butyl-6-propylpyrimidin-4-yl)-1-[4-(4-ethoxy-2-oxo-2H-pyrimidin-1-yl)butyl]piperazin-1-ium fumarate] | 2.44 nM | 43
CC(C)(C)c1nc(N2CCN(CCCCn3ccc(-c4ccsc4)nc3=O)CC2)cc(C(F)(F)F)n1 [Example 92, 4-(2-tert-Butyl-6-trifluoromethylpyrimidin-4-yl)-1-[4-(2-oxo-4-thiophen-3-yl-2H-pyrimidin-1-yl)butyl]piperazin-1-ium fumarate] | 4.56 nM | 31

Further lines, results first:

Ki [1] | Selectivity D3 vs. D2L* [2] | Compound
1.8 nM | 44 | CCCc1cc(N2CCN(CCCCn3ccc(-c4cccc(C)c4)nc3=O)CC2)nc(C(C)(C)C)n1 [Example 59, 1-{4-[4-(2-tert-Butyl-6-propylpyrimidin-4-yl)piperazin-1-yl]butyl}-4-(m-tolyl)-1H-pyrimidin-2-one]
11 nM | 49 | CC(CCCn1ccc(=O)[nH]c1=O)N1CCN(c2cc(C(F)(F)F)nc(C(C)(C)C)n2)CC1 (stereo not drawn) [Example 62, 1-{4-[4-(2-tert-Butyl-6-trifluoromethylpyrimidin-4-yl)piperazin-1-yl]pentyl}-1H-pyrimidine-2,4-dione]
3.31 nM | 62 | CCCc1cc(N2CCN(C/C=C(\C)Cn3cc(C)c(=O)[nH]c3=O)CC2)nc(C(C)(C)C)n1 [Example 65]
10 nM | 30 | CCCc1cc(N2CCN(CCC(C)Cn3cc(C)c(=O)[nH]c3=O)CC2)nc(C(C)(C)C)n1 (stereo not drawn) [Example 70, 1-{4-[4-(2-tert-Butyl-6-propylpyrimidin-4-yl)piperazin-1-yl]-2-methylbutyl}-5-methyl-1H-pyrimidine-2,4-dione]
1.52 nM | 53 | CCCc1cc(N2CCN(CCCCn3ccc(C4CCC4)nc3=O)CC2)nc(C(C)(C)C)n1 [Example 74, 1-{4-[4-(2-tert-Butyl-6-propylpyrimidin-4-yl)piperazin-1-yl]butyl}-4-cyclobutyl-1H-pyrimidin-2-one]
2.3 nM | 80 | CCCc1cc(N2CCN(CCCCn3ccc(-c4ccc(C)cc4)nc3=O)CC2)nc(C(C)(C)C)n1 [Example 75, 4-(2-tert-Butyl-6-propylpyrimidin-4-yl)-1-[4-(2-oxo-4-(p-tolyl)-2H-pyrimidin-1-yl)butyl]piperazine 1-fumarate]
0.74 nM | 150 | CC(=O)O.CCCc1cc(N2CCN(CCCCn3cc(Cl)c(=O)[nH]c3=O)CC2)nc(C(C)(C)C)n1 [Example 77, 4-(2-tert-Butyl-6-propylpyrimidin-4-yl)-1-[4-(5-chloro-2,4-dioxo-3,4-dihydro-2H-pyrimidin-1-yl)butyl]piperazin-1-ium acetate]
0.32 nM | 48 | O=c1ccn(CCCCN2CCN(c3cccc(Cl)c3Cl)CC2)c(=O)[nH]1 [Example 78, 1-{4-[4-(2,3-Dichlorophenyl)piperazin-1-yl]butyl}-1H-pyrimidine-2,4-dione]
0.86 nM | 30 | O=c1[nH]c(=O)n(CCCCN2CCN(c3cccc(Cl)c3Cl)CC2)cc1F [Example 79, 1-{4-[4-(2,3-Dichlorophenyl)piperazin-1-yl]butyl}-5-fluoro-1H-pyrimidine-2,4-dione]
1.66 nM | 89 | CCc1cn(CCCCN2CCN(c3cc(C(F)(F)F)nc(C(C)(C)C)n3)CC2)c(=O)[nH]c1=O [Example 83, 4-(2-tert-Butyl-6-trifluoromethylpyrimidin-4-yl)-1-[4-(5-ethyl-2,4-dioxo-3,4-dihydro-2H-pyrimidin-1-yl)butyl]piperazine 1-fumarate]
0.97 nM | 31 | CCCc1cc(N2CCN(CCCCn3ccc(-c4cccs4)nc3=O)CC2)nc(C(C)(C)C)n1 [Example 87, 1-{4-[4-(2-tert-Butyl-6-propylpyrimidin-4-yl)piperazin-1-yl]butyl}-4-thiophen-2-yl-1H-pyrimidin-2-one]
0.65 nM | 40 | CCCc1cc(N2CCN(CCCCn3ccc(-c4ccsc4)nc3=O)CC2)nc(C(C)(C)C)n1 [Example 93, 1-{4-[4-(2-tert-Butyl-6-propylpyrimidin-4-yl)piperazin-1-yl]butyl}-4-thiophen-3-yl-1H-pyrimidin-2-one]
